Tests used:
Settings in all cases: Compound concentration 1.0 uM
[1] = target: MAP/microtubule affinity-regulating kinase 3 (Homo sapiens) (UniProt P27448)
[2] = target: T1, Serine/threonine-protein kinase D1 (Homo sapiens) (UniProt Q15139)
T1 sequence (whole entry): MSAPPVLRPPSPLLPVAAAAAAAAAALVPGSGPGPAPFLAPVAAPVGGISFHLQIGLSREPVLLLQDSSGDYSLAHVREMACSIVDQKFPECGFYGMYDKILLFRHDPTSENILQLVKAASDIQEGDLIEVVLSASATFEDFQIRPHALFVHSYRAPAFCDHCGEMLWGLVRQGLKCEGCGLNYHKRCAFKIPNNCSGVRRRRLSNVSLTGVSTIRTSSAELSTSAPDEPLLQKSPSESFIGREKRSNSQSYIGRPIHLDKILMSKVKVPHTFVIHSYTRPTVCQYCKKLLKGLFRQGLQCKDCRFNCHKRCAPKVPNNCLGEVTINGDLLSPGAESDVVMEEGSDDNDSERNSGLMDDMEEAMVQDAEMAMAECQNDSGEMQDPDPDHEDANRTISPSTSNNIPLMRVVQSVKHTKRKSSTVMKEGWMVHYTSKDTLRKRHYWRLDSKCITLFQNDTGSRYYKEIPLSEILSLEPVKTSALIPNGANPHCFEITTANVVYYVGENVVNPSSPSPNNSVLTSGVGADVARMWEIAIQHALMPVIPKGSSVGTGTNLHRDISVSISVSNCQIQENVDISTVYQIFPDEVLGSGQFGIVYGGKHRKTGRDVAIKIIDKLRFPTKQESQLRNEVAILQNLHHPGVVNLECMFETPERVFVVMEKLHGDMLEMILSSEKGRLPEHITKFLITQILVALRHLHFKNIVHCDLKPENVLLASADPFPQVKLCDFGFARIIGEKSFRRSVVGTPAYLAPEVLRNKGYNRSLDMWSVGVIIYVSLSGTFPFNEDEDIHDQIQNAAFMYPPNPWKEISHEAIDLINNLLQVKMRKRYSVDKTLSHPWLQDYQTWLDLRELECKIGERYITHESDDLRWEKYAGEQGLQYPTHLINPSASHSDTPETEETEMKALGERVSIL

[3] = target: G protein-coupled receptor kinase 6 (Homo sapiens) (UniProt P43250)
Chain of G protein-coupled receptor kinase 6 (Homo sapiens) (P43250 whole entry, looked up): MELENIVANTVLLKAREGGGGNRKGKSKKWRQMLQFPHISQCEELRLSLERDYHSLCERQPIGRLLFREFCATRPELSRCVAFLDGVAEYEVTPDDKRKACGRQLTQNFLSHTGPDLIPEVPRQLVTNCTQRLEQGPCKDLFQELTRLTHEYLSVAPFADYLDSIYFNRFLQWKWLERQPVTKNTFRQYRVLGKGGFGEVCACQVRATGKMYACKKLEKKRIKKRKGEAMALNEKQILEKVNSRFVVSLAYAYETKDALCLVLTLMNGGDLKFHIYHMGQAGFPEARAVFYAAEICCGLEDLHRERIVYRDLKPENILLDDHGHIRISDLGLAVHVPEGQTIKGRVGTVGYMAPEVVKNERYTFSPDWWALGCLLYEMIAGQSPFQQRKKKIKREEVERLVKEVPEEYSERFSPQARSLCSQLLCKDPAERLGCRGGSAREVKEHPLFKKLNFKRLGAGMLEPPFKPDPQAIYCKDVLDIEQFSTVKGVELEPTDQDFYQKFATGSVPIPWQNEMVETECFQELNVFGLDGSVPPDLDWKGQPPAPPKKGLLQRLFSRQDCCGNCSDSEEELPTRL

[4] = target: Serine/threonine-protein kinase Chk2 (Homo sapiens) (UniProt O96017)
Chain of Serine/threonine-protein kinase Chk2 (Homo sapiens) (O96017 whole entry): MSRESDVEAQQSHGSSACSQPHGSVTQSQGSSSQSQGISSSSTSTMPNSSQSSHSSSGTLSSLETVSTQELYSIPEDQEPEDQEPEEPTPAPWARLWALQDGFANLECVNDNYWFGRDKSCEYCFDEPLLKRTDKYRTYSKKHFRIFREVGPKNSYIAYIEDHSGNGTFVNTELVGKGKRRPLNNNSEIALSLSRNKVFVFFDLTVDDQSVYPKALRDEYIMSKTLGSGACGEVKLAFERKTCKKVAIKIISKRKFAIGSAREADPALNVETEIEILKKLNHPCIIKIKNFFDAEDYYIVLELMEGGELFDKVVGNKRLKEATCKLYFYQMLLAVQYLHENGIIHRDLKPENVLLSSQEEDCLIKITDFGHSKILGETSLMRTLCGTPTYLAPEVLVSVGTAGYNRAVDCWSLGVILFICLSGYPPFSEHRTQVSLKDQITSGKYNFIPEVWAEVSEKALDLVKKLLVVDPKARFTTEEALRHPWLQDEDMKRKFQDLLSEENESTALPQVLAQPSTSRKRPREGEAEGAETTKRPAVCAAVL

[5] = target: T2, Ephrin type-A receptor 8 (Homo sapiens) (UniProt P29322)
T2 sequence (whole entry): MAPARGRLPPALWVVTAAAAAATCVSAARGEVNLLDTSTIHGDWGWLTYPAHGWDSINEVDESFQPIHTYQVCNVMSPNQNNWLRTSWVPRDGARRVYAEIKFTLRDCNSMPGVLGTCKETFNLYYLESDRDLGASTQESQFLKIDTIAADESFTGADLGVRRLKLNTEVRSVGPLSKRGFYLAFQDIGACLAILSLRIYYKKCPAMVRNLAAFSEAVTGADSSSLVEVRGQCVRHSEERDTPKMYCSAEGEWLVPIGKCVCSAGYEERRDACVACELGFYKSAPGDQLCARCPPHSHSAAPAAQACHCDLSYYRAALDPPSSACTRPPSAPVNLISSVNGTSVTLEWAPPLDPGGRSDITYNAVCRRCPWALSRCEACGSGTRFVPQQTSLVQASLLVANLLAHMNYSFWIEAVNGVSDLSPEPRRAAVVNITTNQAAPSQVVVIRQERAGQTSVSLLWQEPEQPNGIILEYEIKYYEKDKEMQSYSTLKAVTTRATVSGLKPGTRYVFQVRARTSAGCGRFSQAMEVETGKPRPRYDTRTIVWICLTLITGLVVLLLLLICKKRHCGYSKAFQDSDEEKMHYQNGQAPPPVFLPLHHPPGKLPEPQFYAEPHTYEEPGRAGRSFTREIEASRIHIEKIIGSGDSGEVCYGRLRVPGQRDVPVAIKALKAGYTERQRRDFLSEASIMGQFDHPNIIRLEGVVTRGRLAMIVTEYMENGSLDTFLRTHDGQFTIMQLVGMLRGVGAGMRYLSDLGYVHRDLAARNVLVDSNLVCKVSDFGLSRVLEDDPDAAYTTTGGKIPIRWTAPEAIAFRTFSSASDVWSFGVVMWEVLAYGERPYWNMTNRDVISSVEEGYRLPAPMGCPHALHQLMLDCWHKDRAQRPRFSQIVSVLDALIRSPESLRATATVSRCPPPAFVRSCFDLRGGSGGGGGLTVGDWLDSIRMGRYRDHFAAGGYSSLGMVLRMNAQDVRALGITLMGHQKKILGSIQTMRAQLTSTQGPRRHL

[6] = target: T3, Serine/threonine-protein kinase TAO1 (Homo sapiens) (UniProt Q7L7X3)
T3 sequence (whole entry): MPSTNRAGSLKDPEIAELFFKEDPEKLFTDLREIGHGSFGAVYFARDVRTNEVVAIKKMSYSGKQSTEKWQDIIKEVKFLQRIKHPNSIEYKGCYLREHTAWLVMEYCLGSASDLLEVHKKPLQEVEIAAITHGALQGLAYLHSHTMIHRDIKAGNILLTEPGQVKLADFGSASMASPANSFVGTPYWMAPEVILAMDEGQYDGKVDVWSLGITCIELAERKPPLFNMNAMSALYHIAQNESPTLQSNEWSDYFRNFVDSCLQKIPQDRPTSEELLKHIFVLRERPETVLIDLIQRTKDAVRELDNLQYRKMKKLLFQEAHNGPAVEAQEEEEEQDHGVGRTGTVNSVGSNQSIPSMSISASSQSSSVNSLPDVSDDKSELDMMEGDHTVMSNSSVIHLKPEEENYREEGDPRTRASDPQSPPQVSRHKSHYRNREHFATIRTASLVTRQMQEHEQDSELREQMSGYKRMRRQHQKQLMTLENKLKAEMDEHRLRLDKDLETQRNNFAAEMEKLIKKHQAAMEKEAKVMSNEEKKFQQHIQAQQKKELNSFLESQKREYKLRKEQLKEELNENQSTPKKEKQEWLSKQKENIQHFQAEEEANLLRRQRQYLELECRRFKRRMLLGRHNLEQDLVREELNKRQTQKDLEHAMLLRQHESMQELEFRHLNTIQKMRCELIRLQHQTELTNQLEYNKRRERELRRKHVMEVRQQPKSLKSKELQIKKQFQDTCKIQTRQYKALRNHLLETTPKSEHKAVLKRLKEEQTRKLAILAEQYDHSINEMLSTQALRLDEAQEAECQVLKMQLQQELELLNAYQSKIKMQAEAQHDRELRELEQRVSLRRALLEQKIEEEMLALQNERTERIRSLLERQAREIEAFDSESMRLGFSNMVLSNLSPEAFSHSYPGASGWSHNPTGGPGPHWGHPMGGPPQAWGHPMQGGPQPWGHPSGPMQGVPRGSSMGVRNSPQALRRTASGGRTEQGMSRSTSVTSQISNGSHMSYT

Measured: % residual kinase activity

Chain of MAP/microtubule affinity-regulating kinase 3 (Homo sapiens) (P27448 whole entry, looked up): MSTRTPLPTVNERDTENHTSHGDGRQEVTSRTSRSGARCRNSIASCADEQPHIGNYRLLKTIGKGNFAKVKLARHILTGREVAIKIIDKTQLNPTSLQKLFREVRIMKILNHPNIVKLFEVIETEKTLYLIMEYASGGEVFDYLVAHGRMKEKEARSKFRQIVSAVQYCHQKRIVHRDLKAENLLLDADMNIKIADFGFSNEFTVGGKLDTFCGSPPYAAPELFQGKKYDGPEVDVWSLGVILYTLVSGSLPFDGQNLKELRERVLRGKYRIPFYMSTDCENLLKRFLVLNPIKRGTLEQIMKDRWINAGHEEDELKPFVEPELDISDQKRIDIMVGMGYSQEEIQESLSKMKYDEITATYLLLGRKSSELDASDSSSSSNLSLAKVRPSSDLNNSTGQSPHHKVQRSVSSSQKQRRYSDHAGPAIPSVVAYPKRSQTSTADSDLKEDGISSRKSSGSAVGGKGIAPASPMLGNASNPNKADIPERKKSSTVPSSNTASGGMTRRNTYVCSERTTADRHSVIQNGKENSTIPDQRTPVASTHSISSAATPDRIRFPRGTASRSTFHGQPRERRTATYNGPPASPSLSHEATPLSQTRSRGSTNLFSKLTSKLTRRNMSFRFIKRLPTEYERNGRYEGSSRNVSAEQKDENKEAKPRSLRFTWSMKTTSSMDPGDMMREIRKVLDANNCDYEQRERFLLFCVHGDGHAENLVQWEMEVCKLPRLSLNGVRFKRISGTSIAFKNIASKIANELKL

CN1CCN(c2cnc3c(C4CCN(C(=O)c5ccc(OC(F)(F)F)cc5N)CC4)ncnc3c2)CC1 [BAY-885]
inactive: [1] 100% | [2] 127% | [3] 111% | [4] 92% | [5] 104% | [6] 100%
